Test results published in patent US6184217A (Cephalon, Inc., priority 1997, dated 2001).

Experiments:
[1] = test system: IL-1β production (THP-1 cells); assay: Inhibition of LPS-induced IL-1β production in THP-1 cells; format: cell-based; settings: Homo sapiens, LPS 2 ug/ml
Procedure: Stock solutions consisting of 4 mM Compound A, in 100% DMSO, were stored at 4° C. Cell culture medium RPMI 1640 (Media Tech, Herndon, Va.) and fetal bovine serum (Hyclone, Logan, Utah) comprised the test medium. Lipopolysaccharide (LPS) (Sigma, St. Louis, Mo.) from E. coli serotype 0.111:B4, extracted with trichloroacetic acid, was used. Stock solutions of LPS were prepared and stored at 4° C. in phosphate-buffered saline (PBS). ELISA kits for assaying tumor necrosis factor alpha (TNF-α) and IL-1β were purchased from Boehringer-Mannheim, (Indianapolis, Ind.) and were used according to the manufacturer's instructions. THP-1 cells, a human monocyte-derived cell line, was obtained from the American Type Culture Collection (ATCC TIB 202). Cells were grown in RPMI 1640 containing 10% fetal bovine serum (medium) in a humidified atmosphere of 5% CO2 :95% air at 37° C. Experiments were performed in 24 well culture plates (Nunc) with 5×10^5 THP-1 cells in 1 ml of medium. Cells were incubated with LPS at 2 ug/ml to induce TNF-α. After a 3-hr incubation period, the cells and medium were centrifuged at 1,000×g for 5 min, and the resulting supernatant fluid was either assayed immediately for TNF-α or stored at -70° C. and assayed later. Media samples were measured for content of TNF-α and IL-1β by Elisa assays. […]

[2] = test system: IL-1β; assay: LPS-induced IL-1β in the serum of mice; format: in vivo, C57BL mice; settings: LPS dose 1.0 ip; 30 mg/kg ip 2 h before LPS; vehicle 300 ± 87; N = 8
Procedure: (§1) Sixty female C57BL mice (4-6 weeks old) were divided into six groups, each with 10 animals. Three groups (1,3,5) received vehicle only (PBS containing 0.1% TEA (tetraethyl ammonium hydrochloride)), 200 μl/mouse via intraperitoneal (ip) administration. The other three groups (2,4,6) received Compound A (30 mg/kg in 200 μl, ip) of vehicle (PBS containing 10% of the ethyl ester of 12-hydroxystearic acid; solutol). Two hours later, the animals received by ip administration, 0.1 mg/kg of LPS (groups 1 & 2), 0.5 mg/kg of LPS (groups 3 & 4), and 1.0 mg/kg of LPS (groups 5 % 6). Two hours after LPS administration, all of the animals were sacrificed, and plasma samples were obtained and assayed for their […] and IL-1β content. Assays were carried out as described in Example 8.
(§2) The numbers in are the group numbers as described above. N indicates the number of animals from which plasma measurements where made. ND=not done.

[3] = test system: nucleus basalis magnocellularis; assay: T-maze rewarded alternation task after bilateral nbm lesion; format: in vivo, Sprague-Dawley rats; settings: 0.1 mg/kg s.c. every other day until 12 days post-lesion; tested 10-12 weeks later
Procedure: Adult male Sprague-Dawley rats were first trained to alternate responses in a standard rewarded-alternation T-maze task (Hepler et al., J. Neurosci., 5:866-873, 1985). The animals then received bilateral lesions of the nucleus basalis magnocellularis, to impair performance in T-maze tasks (e.g., Salamone et al., Behav. Brain Res., 13:63-70, 1984). Beginning 18 hours after the lesion, the animals received Compound A via subcutaneous injection (0.1 mg/kg) every other day until 12 days post-lesion. Twenty-four hours following the last injection all animals were placed in the T-maze once a day, until their alternation performance reached pre-operative levels, which took anywhere from 3 to 10 days. After reaching criterion, the animals were not further tested for 8-10 weeks. At that point the animals were again placed in the T-maze, once a day until they reached pre-operative performance.

[4] = test system: TNF-α; assay: LPS-induced TNF-α in the serum of mice; format: in vivo, C57BL mice; settings: 30 mg/kg ip 2 h before LPS
Procedure: as §1, §2

[5] = test system: striatal tyrosine hydroxylase (dopaminergic neurons); assay: Striatal tyrosine hydroxylase activity in low-dose MPTP-treated mice; format: in vivo, C57 black mice; settings: MPTP 20 mg/kg, 7 days
Procedure: Experiments were conducted using Compound A in MPTP-lesioned dopaminergic neurons in mice (MPTP mouse model). A single s.c. dose of MPTP (20 mg/kg) provided to C57 black mice produced approximately 60% loss of striatal tyrosine hydroxylase activity. Administration of Compound A, at daily doses ranging from 0.01 to 10 mg/kg (s.c.), to such MPTP-treated mice reduced the loss of striatal tyrosine hydroxylase activity.
Mice were treated with MPTP (20 mg/kg; s.c.) 4-6 hours after the first Compound A injection. Compound A was then injected every day until the end of the experiment, which was 7 days in duration. Striata were assessed for tyrosine hydroxylase enzyme activity. Asterisk indicates statistically significant difference (p<0.05) from MPTP-Vehicle treated animals.

[6] = test system: glutamatergic neurons in layer 2 of the entorhinal cortex; assay: NMDA entorhinal cortex lesion model; format: in vivo, rats; settings: 1 mg/kg s.c. daily, p<0.05
Source text: Glutamate-containing neurons in layer 2 of the entorhinal cortex project to the molecular layer of the dentate gyrus, where they form synapses on the dendrites of the dentate gyrus granule cells. A lesion can be created in layer 2 of entorhinal cortex by stereotaxic injection of the excitotoxin N-methyl-D-asparate (NMDA). Under sodium pentobarbitol anesthesia, rats received an injection of NMDA (15 nmols/site) at each of 2 sites in the entorhinal cortex. Two weeks later, the rats were sacrificed and perfused with a 50 mM sodium sulfide solution. The brains were removed, sectioned in the horizontal plane at a thickness of 40 μm, and stained with either Cresyl violet or Timm'stain. The survival of neurons in layer 2 of entorhinal cortex was assessed in Cresyl violet stained sections, while the integrity of their axon terminals in the molecular layer of the dentate gyrus was measured in alternate sections stained with Timm's stain.
Injection of NMDA destroyed 62±11% (s.e.m.) of entorhinal layer 2 and decreased the area of the dentate gyrus middle molecular layer by 19±6% (s.e.m.). […] Thus, Compound A protected neurons in the entorhinal cortex from an excitotoxic lesion and maintained the integrity of their axon terminals in the dentate gyrus.

## CCSCc1ccc2c(c1)c1c3c(c4c5cc(CSCC)ccc5n5c4c1n2C1CC(O)(C(=O)OC)C5(C)O1)CNC3=O (stereo not shown) [Compound A]
[1]
  IC50: 261 nM
[2]
  IL-1β: 59 ± 19 pg/mL
[3]
  total number of errors in T-maze task compared to normals: not different from normals
[4]; LPS dose 0.1 ip, vehicle 6129 ± 676, N = 10
  TNF-α: 2714 ± 449 pg/mL
[4]; LPS dose 0.5 ip, vehicle 7141 ± 1113, N = 7
  TNF-α: 3766 ± 375 pg/mL
[4]; LPS dose 1.0 ip, vehicle 3745 ± 610, N = 9
  TNF-α: 2399 ± 1399 pg/mL
[5]; 0.01 mg/kg s.c. daily
  % of Unlesioned Control: 41 ± 5.3%
  Striatal TH Activity (± SEM): 7.76 ± 1.23
[5]; 0.03 mg/kg s.c. daily
  % of Unlesioned Control: 55 ± 3.9%
  Striatal TH Activity (± SEM): 10.48 ± 0.92
[5]; 0.10 mg/kg s.c. daily
  % of Unlesioned Control: 60 ± 6.5%
  Striatal TH Activity (± SEM): 11.51 ± 0.80
[5]; 0.30 mg/kg s.c. daily
  % of Unlesioned Control: 62 ± 5.0%
  Striatal TH Activity (± SEM): 11.89 ± 1.34
[5]; 1.0 mg/kg s.c. daily
  % of Unlesioned Control: 54 ± 7.0%
  Striatal TH Activity (± SEM): 10.39 ± 1.39
[5]; 3.0 mg/kg s.c. daily
  % of Unlesioned Control: 51 ± 5.8%
  Striatal TH Activity (± SEM): 9.66 ± 1.10
[5]; 10.0 mg/kg s.c. daily
  % of Unlesioned Control: 51 ± 3.7%
  Striatal TH Activity (± SEM): 9.77 ± 0.70
[6]; NMDA alone 19±6% decrease
  decrease in area of dentate gyrus middle molecular layer: prevented the decrease in area of the middle molecular layer
[6]; s.e.m., NMDA alone 62±11%
  loss of entorhinal layer 2 neurons: 22±10%
